These results are taken from US20100323950A1, “USE OF BETA-MELANOTROPIN AS A THERAPEUTIC AGENT, EG FOR THE TREATMENT OF AIDS OR ALZHEIMER” (priority 2007, published 2010).

The nature of one series: in vitro. The settings on record: human, MRC-5 cells (human embryonal lung fibroblasts).
In a further series the test system is Pseudomonas aeruginosa. The settings on record: 5 micrograms per ml.
The nature of series [1]: Cytotoxicity (dye uptake cell viability) in HepG2-2.2.15 cells. The settings on record: human.
The test system of a further series is MRSA. The settings on record: 5 micrograms per ml.
Another series concerns Streptococcus pneumoniae. The settings on record: 5 micrograms per ml.

As usually defined, the viability is a per cent measure of how many cells are alive, often set against a control. Lower therefore signals more harm to the cells. In general, % inhibition refers to the percentage by which the read-out fell short of the control. A higher % inhibition goes with a response far below the control. Consider `CSCC[C@H](NC(=O)[C@H](CCCNC(=N)N)NC(=O)[C@H](Cc1ccc(O)cc1)NC(=O)[C@@H]1CCCN1C(=O)CNC(=O)[C@H](CCC(=O)O)NC(=O)[C@H](CC(=O)O)NC(=O)[C@H](CCCCN)NC(=O)[C@H](CCCCN)NC(=O)[C@H](CCC(=O)O)NC(=O)[C@H](C)N)C(=O)N[C@@H](CCC(=O)O)C(=O)N[C@@H](Cc1c[nH]cn1)C(=O)N[C@@H](Cc1ccccc1)C(=O)N[C@@H](CCCNC(=N)N)C(=O)N[C@@H](Cc1c[nH]c2ccccc12)C(=O)NCC(=O)N[C@@H](CO)C(=O)N1CCC[C@H]1C(=O)N1CCC[C@H]1C(=O)N[C@@H](CCCCN)C(=O)N[C@@H](CC(=O)O)C(=O)O` [Beta MSH], for which the viability at 144 h in “in vitro” was 100%. Further, the “% inhibition” value with Pseudomonas aeruginosa, in the series with MRSA and in the series with Streptococcus pneumoniae was 0.0% in each case. The compound also displayed a viability at 144 h, 10 micrograms per ml in series [1] of 100%.
